Assay results from patent USRE38332E1, “Selected soluble esters of hydroxyl-containing indolocarbazoles” (Cephalon, Inc., priority 1995, dated 2003).

Tests used:
[1] = Solubility of the esters at 1 mg/ml in water and buffer solutions; details: for solubility in Tris buffer: 10 mM Tris buffer pH 9; for solubility in acetate buffer: 10 mM acetate buffer pH 4; for solubility in phosphate buffer: 10 mM phosphate buffer pH 7; for solubility in water: water (Solution 1)
Description: Indolocarbazole esters were dissolved in water, dimethylsulfoxide (DMSO) and the following buffer solutions to determine solubility and to observe conversion to indolocarbazole I-5. Samples were analyzed by HPLC using UV detection at 290 nm.
Solution 2 was a 10 mM acetate buffer at pH 4 which was prepared by weighing 0.68 g of sodium acetate 3H2O into 500 ml of water and adjusting the pH with acetic acid.
Solution 3 was a 10 mM phosphate buffer, pH 7, which was prepared by weighing 0.30 g of monobasic sodium phosphate and 0.36 g of dibasic sodium phosphate into 500 ml of water, stirring until completely dissolved, and adjusting the pH with hydrochloric acid.
Solution 4 was a 10 mM Tris buffer, pH 9, which was prepared by weighing 0.79 g of Tris (tris(hydroxymethyl)aminomethane hydrochloride) into 500 ml of water, stirring until completely dissolved, and adjusting the pH with sodium hydroxide.
Sample solutions were prepared by weighing 0.5-1 mg of the indolocarbazole ester into an amber 1.5 ml autosampler vial, to which the appropriate quantity of one of the buffer solutions was added, in order to achieve a final concentration of 1 mg/ml. The sample solutions were vortexed and sonicated for 10 minutes. Fifty μl aliquots were placed into 1.5 ml amber autosampler vials. The reaction was quenched at a selected time interval by addition of 450 μl DMSO to the vial.

[2] = system: ChAT activity in spinal cord cultures; assay: Effect of indolocarbazole esters on ChAT activity in dissociated spinal cord cultures; type: cell-based, rat
Description: The effect of indolocarbazole esters of the invention on ChAT activity was assayed in dissociated spinal cord cultures prepared from fetal rats. ChAT is the enzyme that catalyzes the synthesis of the neurotransmitter acetylcholine, and it is a specific biochemical marker for cholinergic neurons. In the spinal cord, the large majority of cholinergic neurons are motor neurons. Assay of this enzyme may thus be used as an indication of the effects of a factor (or factors) on the survival and/or differentiation of cholinergic neurons and/or regulation of this enzyme. The procedure used for the assay is that described in Example 6 of WO 94/02488. Fourteen esters were tested in the spinal cord ChAT assay to determine their relative efficacy, and the results are summarized in Table 4.

[3] = In vitro metabolism of I-5 esters in human plasma; type: in vitro ADME; details: 5000 ng/mL, 37° C.
Description: (§1) Freshly-collected plasma from male Sprague-Dawley rats and presumably-healthy drug-free male humans was pooled and immediately frozen. The plasma was kept frozen at −90° C. and each aliquot was thawed only once for use in incubations. Stock solutions of the indolocarbazole esters were prepared in DMSO and were used to prepare standard curves in plasma that had been boiled to two minutes. Boiled plasma was divided into 500 μL aliquots, mixed with an aliquot of the internal standard, and spiked with the respective stock indolocarbazole ester solutions to prepare the standard curve. Thawed plasma was divided into 500 μL aliquots, placed in screw-cap vials, mixed with internal standard, and spiked with stock solutions of the respective indolocarbazole esters to yield a nominal concentration of 5000 ng/mL.
(§2) Incubations were then performed at 37° C. in a shaking water bath for 0, 0.5, 1, 2, 5, 10, 15, 30, and 60 minutes and quenched by addition of 5 mL methylene chloride. All tubes (standards and experimentals) were extracted for 15 minutes by shaking, and centrifuged. The methylene chloride layer was removed, dried under a stream of nitrogen, and reconstituted in DMSO. Fifty μL of the reconstituted extracts were analyzed by reverse-phase HPLC with detection at 290 nm. The mobile phase and gradient conditions are given below: […]

[4] = In vitro metabolism of I-5 esters in rat plasma; type: in vitro ADME; details: 5000 ng/mL, 37° C.
Description: as §1, §2

For `COC1(COC(=O)C(N)CCCCN)CC2OC1(C)n1c3ccccc3c3c4c(c5c6ccccc6n2c5c31)C(=O)NC4.Cl.Cl` (stereo not shown) [Example 1, (I-5)-Lysinate Dihydrochloride], the “solubility in Tris buffer” value [1] was “completely soluble”, the “solubility in acetate buffer” value [1] was “completely soluble” and the “solubility in phosphate buffer” value [1] was “completely soluble”. The solubility in water [1] was “completely soluble”, the “Spinal Cord ChAT Activity (% of Control) 500 nM” value [2] was 150 % of Control and the “Spinal Cord ChAT Activity (% of Control) 1000 nM” value [2] was 153 % of Control. For the same molecule, the “hydrolysis, conversion to indolocarbazole I-5” value (“hydrolysis, conversion” for short) [3] was “hydrolyzed rapidly”.
In the case of `COC1(COC(=O)CN)CC2OC1(C)n1c3ccccc3c3c4c(c5c6ccccc6n2c5c31)C(=O)NC4.Cl` (stereo not shown) [Example 2, (I-5)-Glycinate Hydrochloride], the “maximum rates of hydrolysis” value [4] is reported as “more extensively hydrolyzed”, the “Spinal Cord ChAT Activity (% of Control) 500 nM” value [2] is reported as 157 % of Control and the “Spinal Cord ChAT Activity (% of Control) 1000 nM” value [2] is reported as 151 % of Control.
With `COC1(COC(=O)C(C)N)CC2OC1(C)n1c3ccccc3c3c4c(c5c6ccccc6n2c5c31)C(=O)NC4.Cl` (stereo not shown) [Example 3, (I-5)-Alaninate Hydrochloride] the “maximum rates of hydrolysis” value [4] was “more extensively hydrolyzed”, the “solubility in Tris buffer” value [1] was “not completely soluble” and the “solubility in acetate buffer” value [1] was “completely soluble”. The “solubility in phosphate buffer” value [1] was “not completely soluble”, the solubility in water [1] was “completely soluble” and the “Spinal Cord ChAT Activity (% of Control) 500 nM” value [2] was 151 % of Control. The “Spinal Cord ChAT Activity (% of Control) 1000 nM” value [2] was 132 % of Control and the “hydrolysis, conversion” value [3] was “not detectable”.
In the case of `COC1(COC(=O)CCC(=O)O)CC2OC1(C)n1c3ccccc3c3c4c(c5c6ccccc6n2c5c31)C(=O)NC4` (stereo not shown) [Example 4, (I-5)-Hydrogen Succinate], the “solubility in Tris buffer” value [1] is reported as “not completely soluble”, the “solubility in acetate buffer” value [1] is reported as “not completely soluble” and the “solubility in phosphate buffer” value [1] is reported as “not completely soluble”. The solubility in water [1] was “not completely soluble”, the “Spinal Cord ChAT Activity (% of Control) 500 nM” value [2] was 150 % of Control and the “Spinal Cord ChAT Activity (% of Control) 1000 nM” value [2] was 154 % of Control.
With `COC1(COC(=O)c2cccnc2)CC2OC1(C)n1c3ccccc3c3c4c(c5c6ccccc6n2c5c31)C(=O)NC4.Cl` (stereo not shown) [Example 5, (I-5)-Pyridine-3-carboxylate Hydrochloride] the “solubility in Tris buffer” value [1] was “not completely soluble”, the “solubility in acetate buffer” value [1] was “not completely soluble” and the “solubility in phosphate buffer” value [1] was “not completely soluble”. The solubility in water [1] was “not completely soluble”, the “Spinal Cord ChAT Activity (% of Control) 500 nM” value [2] was 137 % of Control and the “Spinal Cord ChAT Activity (% of Control) 1000 nM” value [2] was 139 % of Control. The “increase of ChAT activity over control” value ([2]; 10 μM) was “*This compound increases ChAT activity 169% over control at 10 μM”.
With `COC1(COC(=O)c2ccc[n+](C)c2)CC2OC1(C)n1c3ccccc3c3c4c(c5c6ccccc6n2c5c31)C(=O)NC4.[I-]` (stereo not shown) [Example 6, (I-5)-Pyridine-3-carboxylate Methiodide] the “solubility in Tris buffer” value [1] was “not completely soluble”, the “solubility in acetate buffer” value [1] was “not completely soluble” and the “solubility in phosphate buffer” value [1] was “not completely soluble”. The solubility in water [1] was “not completely soluble”, the “Spinal Cord ChAT Activity (% of Control) 500 nM” value [2] was 149 % of Control and the “Spinal Cord ChAT Activity (% of Control) 1000 nM” value [2] was 150 % of Control.
With `COC1(COC(=O)CN(C)C)CC2OC1(C)n1c3ccccc3c3c4c(c5c6ccccc6n2c5c31)C(=O)NC4.Cl` (stereo not shown) [Example 7, (I-5)-N,N-Dimethylglycinate Hydrochloride] the “solubility in Tris buffer” value [1] was “not completely soluble”, the “solubility in acetate buffer” value [1] was “completely soluble” and the “solubility in phosphate buffer” value [1] was “not completely soluble”. For the same molecule, the solubility in water [1] was “completely soluble”, the “Spinal Cord ChAT Activity (% of Control) 500 nM” value [2] was 132 % of Control and the “Spinal Cord ChAT Activity (% of Control) 1000 nM” value [2] was 151 % of Control.
For `COC1(COC(=O)C(N)Cc2cnc[nH]2)CC2OC1(C)n1c3ccccc3c3c4c(c5c6ccccc6n2c5c31)C(=O)NC4.Cl.Cl` (stereo not shown) [Example 9, (I-5) Histidinate Dihydrochloride], the “solubility in Tris buffer” value [1] was “not completely soluble”, the “solubility in acetate buffer” value [1] was “completely soluble” and the “solubility in phosphate buffer” value [1] was “not completely soluble”. The solubility in water [1] was “completely soluble”, the “Spinal Cord ChAT Activity (% of Control) 500 nM” value [2] was 158 % of Control and the “Spinal Cord ChAT Activity (% of Control) 1000 nM” value [2] was 143 % of Control.
For `COC1(COC(=O)C(N)CCCNC(=N)N)CC2OC1(C)n1c3ccccc3c3c4c(c5c6ccccc6n2c5c31)C(=O)NC4.Cl.Cl` (stereo not shown) [Example 10, (I-5)-Argininate Dihydrochloride], the “hydrolysis of the ester linkage, liberation of indolocarbazole I-5” value [4] was “complete prior to the first sampling period”, the “Spinal Cord ChAT Activity (% of Control) 500 nM” value [2] was 128 % of Control and the “Spinal Cord ChAT Activity (% of Control) 1000 nM” value [2] was 170 % of Control. For the same molecule, the “hydrolysis, conversion” value [3] was “hydrolyzed rapidly”.
In the case of `COC1(COC(=O)C(C)(C)N)CC2OC1(C)n1c3ccccc3c3c4c(c5c6ccccc6n2c5c31)C(=O)NC4.Cl` (stereo not drawn) [Example 12, (I-5)-α-Aminoisobutyrate Hydrochloride], the “solubility in Tris buffer” value [1] is reported as “not completely soluble”, the “solubility in acetate buffer” value [1] is reported as “completely soluble” and the “solubility in phosphate buffer” value [1] is reported as “not completely soluble”. For the same molecule, the solubility in water [1] was “completely soluble”, the “Spinal Cord ChAT Activity (% of Control) 500 nM” value [2] was 155 % of Control and the “Spinal Cord ChAT Activity (% of Control) 1000 nM” value [2] was 150 % of Control.
For `COC1(COC(=O)C(N)CCC(=O)O)CC2OC1(C)n1c3ccccc3c3c4c(c5c6ccccc6n2c5c31)C(=O)NC4.Cl` (stereo not shown) [Example 13, (I-5)-Glutamate Hydrochloride], the “Spinal Cord ChAT Activity (% of Control) 500 nM” value [2] was 168 % of Control and the “Spinal Cord ChAT Activity (% of Control) 1000 nM” value [2] was 142 % of Control.
